From patent publication US20230322822A1, “ARYL PHOSPHOROUS OXIDE COMPOUNDS AND USE THEREOF” (Chengdu Di'ao Jiuhong Pharmaceutical Factory, priority 2020, published 2023)

Test: Pharmacokinetic test in SD rats
Assay type: in vivo
Details: male, rat, plasma, PO, 20 mg/kg
Protocol: Six SD rats were taken, which were all male, and about 8-9 weeks old, weighing about 430 g/rat, and fasting but allowed to drink water for 18 hours.
The rats were divided into two groups, wherein the rats in group 1 were dosed with compound 2 and the rats in group 2 were dosed with control compound 4, both orally and intragastrically in a dose of 20 mg/kg. A lavage fluid was prepared using 70 mM citric acid buffer (pH 3.0) at an administration volume of 5 mL/kg.
0.6 mL of blood (EDTA-2K anti-coagulated) was collected from rat orbits at 0.5, 1.5, 3, 4.5, 8, 12, 24, 36, 48 and 72 hours after the administration respectively. The plasma was separated and stored at −70° C., and the plasma samples were analyzed using liquid chromatography tandem mass spectrometry (LC-MS/MS). The plasma concentration-time data of the individual rates was analyzed using a non-compartmental model of DAS3.3.1 software and pharmacokinetic parameters of the test compounds were calculated.

Compound `COc1cc(N2CCC(N3CCN(C)CC3)CC2)c(C)cc1Nc1ncc(Br)c(Nc2ccc(C)cc2P(C)(C)=O)n1` [Compound 2] has an AUC(0-t) of 96300 ng·h/mL and a Cmax of 2310 ng/mL.
